# Assay results published in patent US6013626A (priority 1995, dated 2000).
# Several values for one entry are separate records, joined by “and”; a condition that tells them apart may be missing. Identical values can stand only once. Entries after “also recorded” stand apart in the source; their conditions may differ. Like-named read-outs stand apart in the source and are kept apart here.
# Key:
# [1] = tested on: Panc 03 (pancreatic ductal adenocarcinoma #03); conditions: for Log Kill: 9 inj. IV
# Protocol: (§1) Gross log kill is defined as T-C/3.2 Td where T is the median time in days for the tumors of the treated group to reach 750 mg, C is the median time in days for the tumors of the control group to reach 750 mg, and Td is the tumor volume doubling time.
# [2] = tested on: Colon 51 (colon adenocarcinoma #51); experiment: In vivo activity, SC Colon 51 tumor; parameters: species or system mice
# Protocol: as §1
# [3] = tested on: Mam 16/C; experiment: In vivo activity, SC Mam 16/C tumor; parameters: species or system mice
# Protocol: as §1
# [4] = tested on: murine and human tumors implanted in mice; format: in vivo; conditions: for tumor burden T/C values: summary: Cryptophycin 1 in five early stage murine and two early stage human tumors, Cryptophycin 8 in all tumors tested to date; for in vivo antitumor activity: tumors implanted in mice
# Protocol: as §1
# [5] = Toxicity in mice; format: in vivo; conditions: for cause of lethal toxicity observed during testing: in vivo testing
# [6] = tested on: murine leukemia (L1210 or P388), murine solid tumor, human solid tumor and low malignancy fibroblast (LML)
# [7] = tested on: Colon 38 (colon adenocarcinoma #38)
# Protocol: as §1
# [8] = tested on: colon adenocarcinoma #33; experiment: In vivo activity, early stage colon adenocarcinoma #33; parameters: species or system mice; conditions: 8.1 mg/kg
# Protocol: Gross log kill is defined as T-C/3.2 Td where T is the median time in days for the tumors of the treated group to reach 750 mg, C is the median time in days for the tumors of the control group to reach 750 mg, and Td is the tumor volume doubling time (T. H. Corbett et al., Cytotoxic Anticancer Drugs: Models and Concepts for Drug Discovery and Development, pp 35-87; Kluwer: Norwell, 1992).
# [9] = tested on: human tumor cell lines such as KB and LoVo; experiment: Cytotoxicity against human tumor cell lines such as KB and LoVo; format: cell-based
# [10] = tested on: Mam 16/Taxol (taxol-resistant mammary #16/C/RP); experiment: In vivo activity, SC Mam 16/Taxol tumor; parameters: species or system mice; conditions: Exp 1733, 5 inj. IV, total dose 16.5 mg/kg
# Protocol: as §1
# [11] = tested on: M17/0 (Adr. Sens.); experiment: In vivo activity, SC M17/0 tumor; parameters: species or system mice; conditions: Exp 1833; SC M17/0 (Adr. Sens.); 5 inj. IV; total dose 5.4 mg/kg
# Protocol: as §1
# [12] = tested on: MX-1 Human Breast; experiment: In vivo activity, SC MX-1 tumor; parameters: species or system SCID mice; conditions: Exp 1806; SC MX-1 Human Breast; 8 inj. IV; total dose 12 mg/kg
# Protocol: as §1
# [13] = tested on: H125 Human Adenosq-lung; format: in vivo, SCID mice; conditions: Exp 1823; SC H125 Human Adenosq-lung; 8 inj. IV; total dose 14.4 mg/kg
# Protocol: as §1
# [14] = tested on: LNCaP Human Prostate; experiment: In vivo activity, SC LNCaP tumor; parameters: species or system mice; conditions: Exp 1841, 6 inj. IV, total dose 6.5 mg/kg
# Protocol: as §1
# [15] = tested on: murine and human tumors implanted in mice; conditions: G. Trimurtulu et al. 1994; R. Barrow et al. 1995; cited from earlier work
# [16] = tested on: fungi, especially strains of Cryptococcus; conditions: R. E. Schwartz et al. 1990; cited from earlier work
# [17] = tested on: microtubule assembly; conditions: C. D. Smith et al. 1994; compared with vinblastine; cited from earlier work
# [18] = tested on: Human Sm Cell L. DMS273; experiment: In vivo activity, SC DMS273 tumor; conditions: Exp 1596; SC Human Sm Cell L. DMS273 SCID; 6 inj. IV; total dose 7.3 mg/kg
# Protocol: as §1
# [19] = tested on: A-10 rat aortic smooth muscle cells; format: cell-based
# Protocol: A-10 cells were grown to near-confluency on glass coverslips in BME/10% FBS. Compounds in PBS were added to the indicated final concentrations and cells were incubated for an additional 24 hours. For the staining of microtubules and intermediate filaments, the cells were fixed with cold methanol and incubated with PBS containing 10% calf serum to block nonspecific binding sites. Cells were then incubated at 37° C. for 60 min with either monoclonal anti-β-tubulin or with monoclonal anti-vimentin at dilutions recommended by the manufacturer. Bound primary antibodies were subsequently visualized by a 45-minute incubation with fluorescein-conjugated rabbit antimouse IgG. The coverslips were mounted on microscope slides and the fluorescence patterns were examined and photographed using a Zeiss Photomicroscope I11 equipped with epifluoroescence optics for fluorescein. […] PBS containing 100 nM TRITC-phalloidin was then added and the mixture was allowed to incubate for 45 min at 37° C. The cells were washed rapidly three times with PBS before the coverslips were mounted and immediately photographed as described above.
# After 24 hours, microtubules and vimentin intermediate filaments were visualized by indirect immunofluorescence and microfilaments were stained using TRITC-phalloidin. The morphological effects of each drug were examined.
# After 24 hours, microtubule organization was examined by immunofluorescence as described above.
# The cells were then washed and incubated in drug-free medium for periods of 1 hour or 24 hours.
# [20] = tested on: SKOV3 cells; experiment: Reversibility of inhibition of SKOV3 cell proliferation; format: cell-based, human; conditions: SKOV3 cells treated 24 hours with IC50 dose, then drug-free medium
# Protocol: After 24 hours the cells were washed and incubated in drug-free medium for the time indicated. The cell density was determined by sulforhodamine B (SRB) staining as described in the Experimental Section, and is expressed as the mean ± sd adsorbance at 560 nm for triplicate samples in one of three experiments.
# [21] = tested on: tumor (leukemia) and normal cell (CFUGM) lines; format: cell-based; conditions: μg/disk per compound where printed
# [22] = Solvolysis (methanolysis) of the C-D ester bond; format: physicochemical; conditions: methanol used in isolation scheme
# [23] = μg/disk differs per compound (0.2-250 μg/disk)
# [24] = Exp 1769, SC C38, 15 inj. IV, 45 mg/kg TD
# [25] = pancreatic ductal adenocarcinoma #03, 8.1 mg/kg
smiles,measurement,setting,value
CC(C)C[C@@H]1OC(=O)[C@H](C)CNC(=O)[C@@H](Cc2ccc(O)c(Cl)c2)NC(=O)/C=C/C[C@@H]([C@H](C)[C@H]2O[C@@H]2c2ccccc2)OC1=O [Cryptophycin 16],Log Kill,"[1]; Exp 1878, SC P03, 82 mg/kg TD",None
COc1ccc(C[C@H]2NC(=O)/C=C/C[C@@H]([C@H](C)[C@@H](O)[C@@H](Cl)c3ccccc3)OC(=O)[C@H](CC(C)C)OC(=O)[C@H](C)CNC2=O)cc1Cl [Cryptophycin 8],Cures,"[2]; Exp 1900, 9 inj. IV, 67.5 mg/kg TD",0/5
same,Cures,"[3]; Exp 1885, 7 inj. IV, 21.3 mg/kg TD",0/5
same,Cures,[4]; summary b279,some cures
same,gross log kill activity ratings,[4]; summary b279,+++ to ++++
same,tumor burden T/C values,[4],< 10%
same,cause of lethal toxicity observed during testing,[5],attributed to leucopenia
same,"Corbett Assay, Differential in Zone Units",[6],> 500
same,"Corbett Assay, Type of Cytotoxicity",[6]; [23],E/T
same,Log Kill,[7]; [24],None
same,T/C,[7]; [24],> 100%
same,% Body Wt. Loss at Nadir,"[7]; Exp 1887B, SC C38, 6 inj. IV, 30 mg/kg TD",-2%
same,Cures,"[1]; Exp 1825, SC P03, 11 inj. IV, 106 mg/kg TD",0/5
COc1ccc(C[C@H]2NC(=O)/C=C/C[C@@H]([C@H](C)[C@H]3O[C@@H]3c3ccccc3)OC(=O)[C@H](CC(C)C)OC(=O)C(C)(C)CNC2=O)cc1Cl [Cryptophycin 52],in vivo antitumor activity,[4],antitumor activity is seen at sublethal levels; also recorded: comparable in vivo activity to Cryptophycin 1
same,gross (tumor cell) log kill,[8],< 2
same,tumor burden T/C,[8],4%
same,IC50's,[9],0.025 to 0.05 ng/mL
same,acute and chronic toxicities,[5]; in mice,greater than Cryptophycin 1
same,gross (tumor cell) log kill,[1]; [25],< 2
same,tumor burden T/C,[1]; [25],16%
COc1ccc(C[C@H]2NC(=O)/C=C/C[C@@H]([C@H](C)[C@H]3O[C@@H]3c3ccccc3)OC(=O)[C@H](CC(C)C)OC(=O)[C@H](C)CNC2=O)cc1Cl [Cryptophycin 1],Cures,"[2]; Exp 1636, 7 inj. IV, total dose 28.1 mg/kg",0/5
same,Cures,"[3]; Exp 1720, 5 inj. IV, total dose 13.2 mg/kg",0/5
same,Cures,[10],0/4
same,Cures,[11],0/5
same,Cures,[12],0/5
same,Log Kill,[12],2.0
same,Cures,[13],0/5
same,Log Kill,[13],1.1
same,Cures,[14],0/5
same,Log Kill,[14],< 1
same,"log kill values, range over trials",[4]; summary b714,<1 to 2
same,tumor burden T/C values,[4],less than 10%
same,in vivo antitumor activity,[4],shows antitumor activity; also recorded: very promising activity
same,cause of lethal toxicity observed during testing,[5],attributed to leucopenia
same,"Corbett Assay, Differential in Zone Units",[6],> 400
same,"Corbett Assay, Type of Cytotoxicity",[6]; [23],E/T
same,% Body Wt. Loss at Nadir,"[7]; Exp 1560, SC Colon 38, 8 inj. IV, total dose 10.3 mg/kg",Gain
same,activity against subcutaneously transplanted solid tumors in mice,[15],very active against subcutaneously transplanted solid tumors in mice
same,antifungal activity,[16],"very active against fungi, especially strains of Cryptococcus"
same,inhibition of microtubule assembly,[17],irreversibly inhibiting mircotubule assembly
same,% Body Wt. Loss at Nadir,[18],0%
same,Cures,[18],0/5
same,Log Kill,[18],< 1
CC[C@]1(O)C[C@@H]2CN(CCc3c([nH]c4ccccc34)[C@@](C(=O)OC)(c3cc4c(cc3OC)N(C)[C@H]3[C@@](O)(C(=O)OC)[C@H](OC(C)=O)[C@]5(CC)C=CCN6CC[C@]43[C@@H]65)C2)C1 [Vinblastine],effect on taxol-stabilized microtubules,"[19]; A-10 cells pretreated 3 hours with 10 μM taxol, then 100 nM vinblastine or 10 nM cryptophycin compound, 24 hours",pretreatment with taxol prevented microtubule depolymerization
same,effect on vimentin intermediate filaments,"[19]; A-10 cells, 24 hours, 100 nM vinblastine or 10 nM cryptophycin compounds",vimentin intermediate filaments collapsed
same,effect on microtubules,"[19]; A-10 cells, 24 hours, 2 μM cytochalasin B, 100 nM vinblastine or 10 nM cryptophycin compounds",marked depletion of microtubles
same,reversibility of microtubule depolymerization after removal of compound,"[19]; A-10 cells, 24 hr with 100 nM vinblastine or 10 nM cryptophycins, then drug-free medium 1 hour or 24 hours",complete morphological recovery by 24 hour
same,increase in cell number in the 24 hours following removal of the drug,[20],approximately 3 fold
COc1ccc(CC2NC(=O)CCCC(C(C)C3OC3c3ccccc3)OC(=O)C(CC(C)C)OC(=O)C(C)CNC2=O)cc1Cl (stereo not shown) [Cryptophycin 35],in vivo antitumor activity,[4],Good in vivo activity
COc1ccc(C[C@H]2NC(=O)/C=C/C[C@@H]([C@H](C)[C@H]3O[C@@H]3c3ccccc3)OC(=O)[C@H](CC(C)C)OC(=O)[C@H](C)CNC2=O)cc1 [Cryptophycin 2],"Corbett Assay, Differential in Zone Units",[6]; [23],> 400 zone units
same,"Corbett Assay, Type of Cytotoxicity",[6]; [23],E/T
COc1ccc(C[C@H]2NC(=O)/C=C/C[C@@H]([C@H](C)/C=C/c3ccccc3)OC(=O)[C@H](CC(C)C)OC(=O)[C@H](C)CNC2=O)cc1 [Cryptophycin 4],"Corbett Assay, Differential in Zone Units",[6]; [23],> 400 zone units
same,"Corbett Assay, Type of Cytotoxicity",[6]; [23],E/T
COc1ccc(C[C@H]2NC(=O)/C=C/C[C@@H]([C@H](C)/C=C/c3ccccc3)OC(=O)[C@H](CC(C)C)OC(=O)[C@H](C)CNC2=O)cc1Cl [Cryptophycin 3],IC50's,[9],2 to 4 ng/mL
same,"Corbett Assay, Differential in Zone Units",[6],> 400
same,"Corbett Assay, Type of Cytotoxicity",[6]; [23],E/T
"COc1cc([C@@H]2c3cc4c(cc3[C@@H](O[C@@H]3O[C@@H]5CO[C@@H](C)O[C@H]5[C@H](O)[C@H]3O)[C@H]3COC(=O)[C@H]23)OCO4)cc(OC)c1O [VP-16, etoposide, reference compound]","Valeriote Assay, Differential in Zone Units",[21],260 zone units
same,"Corbett Assay, Differential in Zone Units",[6]; [23],350 zone units and 530 zone units
COc1ccc(C[C@H]2NC(=O)/C=C/C[C@@H]([C@H](C)[C@H]3O[C@@H]3c3ccccc3)OC(=O)[C@H](CC(C)C)OC(=O)CCNC2=O)cc1Cl [Cryptophycin 21],in vivo antitumor activity,[4],inactive
same,susceptibility to methanolysis,[22],much more susceptible to methanolysis than Cryptophycin 1
same,Log Kill,"[1]; Exp 1813, SC P03, 27 mg/kg TD",None
"CC(=O)O[C@H]1C(=O)[C@@]2(C)[C@H]([C@H](OC(=O)c3ccccc3)[C@]3(O)C[C@H](OC(=O)[C@H](O)[C@@H](NC(=O)c4ccccc4)c4ccccc4)C(C)=C1C3(C)C)[C@]1(OC(C)=O)CO[C@@H]1C[C@@H]2O [Taxol, taxol, reference compound]","Corbett Assay, Differential in Zone Units",[6]; [23],≥ 400 zone units
same,"Corbett Assay, Type of Cytotoxicity",[6]; [23],M/H/T
COc1ccc(C[C@H]2NC(=O)/C=C/C[C@@H]([C@H](C)/C=C/c3ccccc3)OC(=O)[C@H](CC(C)C)OC(=O)C(C)(C)CNC2=O)cc1Cl [Cryptophycin 51],IC50's,[9],2 to 4 ng/mL
